Publication PMC4823954, “From fighting depression to conquering tumors: a novel tricyclic thiazepine compound as a tubulin polymerization inhibitor” (Cell Death & Disease, 2016)

Columns and labels:
Test in all cases: KINOMEscan
Format in all cases: binding
Settings in all cases: read-out: % Ctrl
NDR1 = target: T1, NDR1 (Homo sapiens, UniProt Q15208)
T1 construct: purchased DiscoveRx KINOMEscan
Protocol: (§1) The binding assay for 442 non-mutant kinases was performed using KINOMEscan (DiscoveRx Corporation, Fremont, CA, USA) as reported previously.[58], [59] TBPT was screened at concentrations of 5 and 10 μM to identify the affected kinases. KINOMEscan is based on a competition reaction that quantitatively measures the ability of a test compound to compete with an active site-directed ligand for binding to the kinase active site. […] After the assay plates were incubated with shaking for 1 h, the liganded beads were washed with washing buffer (1 × PBS and 0.05% Tween 20). Then, the beads were re-suspended in elution buffer (1 × PBS, 0.05% Tween 20, and 0.5 μM ligand) and incubated with shaking for 30 min. The kinase concentration in the eluates was measured via qPCR. The results are represented as ‘%Ctrl', which was calculated using the following formula: (test compound signal–positive control signal)/(DMSO signal–positive control signal) × 100%. A lower % Ctrl indicates stronger binding to the kinase active site.

[1] = target: T2, RSK2(Kin.Dom.1-N-terminal) (Homo sapiens, UniProt P51812)
T2 construct: RSK2(Kin.Dom.1-N-terminal); purchased DiscoveRx KINOMEscan
Protocol: as §1

PFTAIRE2 = target: T3, PFTAIRE2 (Homo sapiens, UniProt Q96Q40)
T3 construct: purchased DiscoveRx KINOMEscan
Protocol: as §1

SRPK2 = target: T4, SRPK2 (Homo sapiens, UniProt P78362)
T4 construct: purchased DiscoveRx KINOMEscan
Protocol: as §1

ANKK1 = target: T5, ANKK1 (Homo sapiens, UniProt Q8NFD2)
T5 construct: purchased DiscoveRx KINOMEscan
Protocol: as §1

AAK1 = target: T6, AAK1 (Homo sapiens, UniProt Q2M2I8)
T6 construct: purchased DiscoveRx KINOMEscan
Protocol: as §1

CAMK4 = target: T7, CAMK4 (Homo sapiens, UniProt Q16566)
T7 construct: purchased DiscoveRx KINOMEscan
Protocol: as §1

ACVR2A = target: T8, ACVR2A (Homo sapiens, UniProt P27037)
T8 construct: purchased DiscoveRx KINOMEscan
Protocol: as §1

PLK2 = target: T9, PLK2 (Homo sapiens, UniProt Q9NYY3)
T9 construct: purchased DiscoveRx KINOMEscan
T9 sequence (Q9NYY3 whole entry): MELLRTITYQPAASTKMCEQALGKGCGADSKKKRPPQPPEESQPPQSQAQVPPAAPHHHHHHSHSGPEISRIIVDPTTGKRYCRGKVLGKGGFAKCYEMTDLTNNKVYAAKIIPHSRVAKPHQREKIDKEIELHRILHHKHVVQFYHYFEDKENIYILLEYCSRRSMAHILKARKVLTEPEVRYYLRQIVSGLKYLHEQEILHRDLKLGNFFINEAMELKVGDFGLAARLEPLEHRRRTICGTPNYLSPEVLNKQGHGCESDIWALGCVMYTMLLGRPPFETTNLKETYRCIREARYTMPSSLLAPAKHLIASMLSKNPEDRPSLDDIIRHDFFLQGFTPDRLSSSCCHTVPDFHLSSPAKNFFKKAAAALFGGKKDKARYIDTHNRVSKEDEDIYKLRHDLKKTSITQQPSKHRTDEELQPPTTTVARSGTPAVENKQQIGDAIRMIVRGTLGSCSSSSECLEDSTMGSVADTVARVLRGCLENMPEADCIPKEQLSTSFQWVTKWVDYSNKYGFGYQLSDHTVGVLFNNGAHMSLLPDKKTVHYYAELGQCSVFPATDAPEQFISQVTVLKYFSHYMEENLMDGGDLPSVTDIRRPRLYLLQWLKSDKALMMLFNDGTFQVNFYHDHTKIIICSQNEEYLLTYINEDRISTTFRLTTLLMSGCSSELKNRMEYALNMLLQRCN
Protocol: as §1

TIE2 = target: T10, TIE2 (Homo sapiens, UniProt Q02763)
T10 construct: purchased DiscoveRx KINOMEscan
Protocol: as §1

BMPR2 = target: T11, BMPR2 (Homo sapiens, UniProt Q13873)
T11 construct: purchased DiscoveRx KINOMEscan
Protocol: as §1

BMX = target: T12, BMX (Homo sapiens, UniProt P51813)
T12 construct: purchased DiscoveRx KINOMEscan
Protocol: as §1

JNK3 = target: T13, JNK3 (Homo sapiens, UniProt P53779)
T13 construct: purchased DiscoveRx KINOMEscan
Protocol: as §1

CSNK2A1 = target: T14, CSNK2A1 (Homo sapiens, UniProt P68400)
T14 construct: purchased DiscoveRx KINOMEscan
T14 sequence (P68400 whole entry): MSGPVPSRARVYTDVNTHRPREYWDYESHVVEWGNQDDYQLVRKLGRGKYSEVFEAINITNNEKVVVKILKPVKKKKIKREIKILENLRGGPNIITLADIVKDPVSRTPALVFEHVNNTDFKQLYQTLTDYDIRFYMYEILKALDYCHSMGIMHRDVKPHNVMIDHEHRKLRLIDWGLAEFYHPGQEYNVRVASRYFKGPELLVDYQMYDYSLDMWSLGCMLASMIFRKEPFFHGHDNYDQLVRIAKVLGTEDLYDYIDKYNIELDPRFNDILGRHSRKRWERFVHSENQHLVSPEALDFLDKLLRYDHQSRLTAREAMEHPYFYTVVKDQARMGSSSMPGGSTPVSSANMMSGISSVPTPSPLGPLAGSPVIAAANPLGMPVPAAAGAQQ
Protocol: as §1

AXL = target: T15, AXL (Homo sapiens, UniProt P30530)
T15 construct: purchased DiscoveRx KINOMEscan
Protocol: as §1

MLK2 = target: T16, MLK2 (Homo sapiens, UniProt Q02779)
T16 construct: purchased DiscoveRx KINOMEscan
T16 sequence (Q02779 whole entry): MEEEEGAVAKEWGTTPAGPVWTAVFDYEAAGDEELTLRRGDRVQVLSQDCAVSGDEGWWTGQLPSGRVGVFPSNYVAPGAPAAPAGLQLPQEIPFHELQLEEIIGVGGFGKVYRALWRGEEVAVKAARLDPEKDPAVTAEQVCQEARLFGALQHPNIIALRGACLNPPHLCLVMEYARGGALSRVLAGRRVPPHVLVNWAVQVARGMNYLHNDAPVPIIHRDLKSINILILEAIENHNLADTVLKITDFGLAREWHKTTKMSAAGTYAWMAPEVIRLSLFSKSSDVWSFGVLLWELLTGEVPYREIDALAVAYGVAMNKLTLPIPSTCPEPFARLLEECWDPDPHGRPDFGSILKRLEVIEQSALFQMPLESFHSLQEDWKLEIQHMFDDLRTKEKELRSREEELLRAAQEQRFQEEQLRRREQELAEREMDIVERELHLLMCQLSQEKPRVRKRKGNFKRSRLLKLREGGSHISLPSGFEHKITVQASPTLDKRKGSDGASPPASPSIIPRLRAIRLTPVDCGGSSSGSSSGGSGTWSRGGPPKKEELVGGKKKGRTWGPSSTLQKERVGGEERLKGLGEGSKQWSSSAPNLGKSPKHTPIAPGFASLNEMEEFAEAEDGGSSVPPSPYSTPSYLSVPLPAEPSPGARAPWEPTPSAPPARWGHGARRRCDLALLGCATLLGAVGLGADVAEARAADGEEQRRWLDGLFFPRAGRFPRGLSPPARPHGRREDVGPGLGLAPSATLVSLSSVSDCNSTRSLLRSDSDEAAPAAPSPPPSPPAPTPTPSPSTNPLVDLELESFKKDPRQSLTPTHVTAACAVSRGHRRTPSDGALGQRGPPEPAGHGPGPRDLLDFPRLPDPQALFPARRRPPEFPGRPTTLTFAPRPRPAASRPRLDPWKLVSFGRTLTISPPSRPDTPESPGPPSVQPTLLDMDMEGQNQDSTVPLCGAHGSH
Protocol: as §1

CHEK1 = target: T17, CHEK1 (Homo sapiens, UniProt O14757)
T17 construct: purchased DiscoveRx KINOMEscan
Protocol: as §1

HIPK4 = target: T18, HIPK4 (Homo sapiens, UniProt Q8NE63)
T18 construct: purchased DiscoveRx KINOMEscan
Protocol: as §1

[2] = target: T19, RPS6KA5(Kin.Dom.1-N-terminal) (Homo sapiens, UniProt O75582)
T19 construct: RPS6KA5(Kin.Dom.1-N-terminal); purchased DiscoveRx KINOMEscan
T19 sequence (O75582 1-387 limits assumed): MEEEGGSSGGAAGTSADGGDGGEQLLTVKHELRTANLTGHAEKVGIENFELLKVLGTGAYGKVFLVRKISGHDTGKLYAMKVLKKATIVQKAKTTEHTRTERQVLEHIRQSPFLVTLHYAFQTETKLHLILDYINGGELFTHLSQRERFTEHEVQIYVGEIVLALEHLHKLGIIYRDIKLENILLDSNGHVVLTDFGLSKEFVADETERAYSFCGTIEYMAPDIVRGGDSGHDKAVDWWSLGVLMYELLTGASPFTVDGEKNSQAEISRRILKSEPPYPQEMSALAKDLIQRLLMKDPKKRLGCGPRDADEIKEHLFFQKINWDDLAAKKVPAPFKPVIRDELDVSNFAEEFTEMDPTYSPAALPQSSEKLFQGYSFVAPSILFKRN
Protocol: as §1

NEK4 = target: T20, NEK4 (Homo sapiens, UniProt P51957)
T20 construct: purchased DiscoveRx KINOMEscan
T20 sequence (P51957 whole entry): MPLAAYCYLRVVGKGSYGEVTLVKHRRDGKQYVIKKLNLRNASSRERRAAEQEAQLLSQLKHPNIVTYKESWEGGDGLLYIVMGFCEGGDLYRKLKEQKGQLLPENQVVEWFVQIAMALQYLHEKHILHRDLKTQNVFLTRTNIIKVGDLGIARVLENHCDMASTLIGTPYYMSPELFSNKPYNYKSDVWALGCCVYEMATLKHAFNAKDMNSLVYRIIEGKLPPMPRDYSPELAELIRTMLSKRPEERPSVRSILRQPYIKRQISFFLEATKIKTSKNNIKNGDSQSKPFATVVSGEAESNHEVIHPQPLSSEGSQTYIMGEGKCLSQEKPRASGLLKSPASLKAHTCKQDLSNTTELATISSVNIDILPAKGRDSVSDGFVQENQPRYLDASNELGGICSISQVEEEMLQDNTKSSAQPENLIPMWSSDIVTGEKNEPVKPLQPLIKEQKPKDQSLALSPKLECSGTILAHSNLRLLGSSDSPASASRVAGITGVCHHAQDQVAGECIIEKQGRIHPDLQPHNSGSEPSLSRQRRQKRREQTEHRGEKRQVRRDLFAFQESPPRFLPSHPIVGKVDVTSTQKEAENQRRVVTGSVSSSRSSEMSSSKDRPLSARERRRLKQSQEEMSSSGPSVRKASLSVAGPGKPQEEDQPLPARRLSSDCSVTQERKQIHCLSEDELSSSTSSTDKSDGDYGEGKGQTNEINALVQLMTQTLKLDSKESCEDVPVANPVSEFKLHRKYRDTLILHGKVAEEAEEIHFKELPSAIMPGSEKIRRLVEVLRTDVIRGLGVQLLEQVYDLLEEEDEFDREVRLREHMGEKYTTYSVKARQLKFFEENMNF
Protocol: as §1

FGFR4 = target: T21, FGFR4 (Homo sapiens, UniProt P22455)
T21 construct: purchased DiscoveRx KINOMEscan
Protocol: as §1

PIK3C2G = target: T22, PIK3C2G (Homo sapiens, UniProt O75747)
T22 construct: purchased DiscoveRx KINOMEscan
Protocol: as §1

CDK5 = target: T23, CDK5 (Homo sapiens, UniProt Q00535)
T23 construct: purchased DiscoveRx KINOMEscan
T23 sequence (Q00535 whole entry): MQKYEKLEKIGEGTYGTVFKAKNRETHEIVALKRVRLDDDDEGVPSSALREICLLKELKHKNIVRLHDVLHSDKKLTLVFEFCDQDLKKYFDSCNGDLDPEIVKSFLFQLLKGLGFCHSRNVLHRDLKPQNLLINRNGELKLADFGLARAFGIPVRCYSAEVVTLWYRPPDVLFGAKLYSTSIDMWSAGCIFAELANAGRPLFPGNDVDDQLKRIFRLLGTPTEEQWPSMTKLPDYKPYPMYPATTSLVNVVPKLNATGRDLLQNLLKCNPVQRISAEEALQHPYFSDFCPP
Protocol: as §1

BRAF = target: T24, BRAF (Homo sapiens, UniProt P15056)
T24 construct: purchased DiscoveRx KINOMEscan
Protocol: as §1

PIK3CG = target: T25, PIK3CG (Homo sapiens, UniProt P48736)
T25 construct: purchased DiscoveRx KINOMEscan
Protocol: as §1

LKB1 = target: T26, LKB1 (Homo sapiens, UniProt Q15831)
T26 construct: purchased DiscoveRx KINOMEscan
Protocol: as §1

EPHB1 = target: T27, EPHB1 (Homo sapiens, UniProt P54762)
T27 construct: purchased DiscoveRx KINOMEscan
Protocol: as §1

CDKL3 = target: T28, CDKL3 (Homo sapiens, UniProt Q8IVW4)
T28 construct: purchased DiscoveRx KINOMEscan
T28 sequence (Q8IVW4 whole entry): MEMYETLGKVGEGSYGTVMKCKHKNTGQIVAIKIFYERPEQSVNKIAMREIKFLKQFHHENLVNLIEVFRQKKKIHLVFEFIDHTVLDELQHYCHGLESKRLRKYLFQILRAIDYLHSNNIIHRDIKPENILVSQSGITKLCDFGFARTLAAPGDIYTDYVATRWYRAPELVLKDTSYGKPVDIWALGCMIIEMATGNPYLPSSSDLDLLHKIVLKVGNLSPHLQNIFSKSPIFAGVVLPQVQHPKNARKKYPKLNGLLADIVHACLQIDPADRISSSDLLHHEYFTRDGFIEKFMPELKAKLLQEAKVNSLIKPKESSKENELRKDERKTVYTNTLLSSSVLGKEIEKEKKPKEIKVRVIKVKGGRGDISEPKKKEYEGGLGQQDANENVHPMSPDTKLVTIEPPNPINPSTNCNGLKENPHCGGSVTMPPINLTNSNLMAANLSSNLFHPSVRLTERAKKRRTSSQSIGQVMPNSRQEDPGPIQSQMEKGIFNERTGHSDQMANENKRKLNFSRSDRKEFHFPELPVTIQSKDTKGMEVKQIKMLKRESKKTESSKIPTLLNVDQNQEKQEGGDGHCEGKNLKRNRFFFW
Protocol: as §1

[3] = target: T29, EGFR(L747-S752del, P753S) (Homo sapiens, UniProt P00533, DEL747-752/P753S)
T29 construct: purchased DiscoveRx KINOMEscan
T29 sequence (P00533 with tags, fused parts or gaps DEL747-752/P753S limits assumed): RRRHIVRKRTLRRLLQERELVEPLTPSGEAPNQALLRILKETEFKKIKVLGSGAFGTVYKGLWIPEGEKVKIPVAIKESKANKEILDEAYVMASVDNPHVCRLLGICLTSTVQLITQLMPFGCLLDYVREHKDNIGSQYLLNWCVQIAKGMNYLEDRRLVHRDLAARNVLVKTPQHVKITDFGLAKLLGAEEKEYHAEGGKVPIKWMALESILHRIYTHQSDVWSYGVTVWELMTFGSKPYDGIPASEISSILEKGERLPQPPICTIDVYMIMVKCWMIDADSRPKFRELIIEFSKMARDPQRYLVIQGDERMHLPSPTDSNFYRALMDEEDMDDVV

T1 sequence (Q15208 whole entry): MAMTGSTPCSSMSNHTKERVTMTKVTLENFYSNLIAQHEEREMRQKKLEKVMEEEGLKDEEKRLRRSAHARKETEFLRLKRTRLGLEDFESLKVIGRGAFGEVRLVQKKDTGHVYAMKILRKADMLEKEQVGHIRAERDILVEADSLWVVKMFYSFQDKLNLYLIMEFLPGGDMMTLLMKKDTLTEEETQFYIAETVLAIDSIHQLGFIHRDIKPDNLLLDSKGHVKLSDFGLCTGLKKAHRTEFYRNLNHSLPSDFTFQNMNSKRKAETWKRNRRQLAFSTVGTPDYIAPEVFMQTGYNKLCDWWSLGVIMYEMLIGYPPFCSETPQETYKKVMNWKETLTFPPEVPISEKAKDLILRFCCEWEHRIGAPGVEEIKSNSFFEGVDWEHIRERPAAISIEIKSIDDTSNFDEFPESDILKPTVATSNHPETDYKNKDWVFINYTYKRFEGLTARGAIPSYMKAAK

Cc1ccc(C2=Nc3cccnc3S(=O)(=O)c3ccccc32)cc1 [TBPT, 6-(p-tolyl)benzo[f] pyrido[2,3-b][1,4] thiazepine 11,11-dioxide]
remaining binding at 5 µM (NDR1; 5 μM): 100% | remaining binding at 10 µM (NDR1; 10 μM): 87% | remaining binding at 5 µM ([1]; 5 μM): 98% | remaining binding at 10 µM ([1]; 10 μM): 100% | remaining binding at 5 µM (PFTAIRE2; 5 μM): 100% | remaining binding at 10 µM (PFTAIRE2; 10 μM): 89% | remaining binding at 5 µM (SRPK2; 5 μM): 96% | remaining binding at 10 µM (SRPK2; 10 μM): 78% | remaining binding at 5 µM (ANKK1; 5 μM): 91% | remaining binding at 10 µM (ANKK1; 10 μM): 72% | remaining binding at 5 µM (AAK1; 5 μM): 100% | remaining binding at 10 µM (AAK1; 10 μM): 89% | remaining binding at 5 µM (CAMK4; 5 μM): 100% | remaining binding at 10 µM (CAMK4; 10 μM): 93% | remaining binding at 5 µM (ACVR2A; 5 μM): 100% | remaining binding at 10 µM (ACVR2A; 10 μM): 93% | remaining binding at 5 µM (PLK2; 5 μM): 100% | remaining binding at 10 µM (PLK2; 10 μM): 83% | remaining binding at 5 µM (TIE2; 5 μM): 100% | remaining binding at 10 µM (TIE2; 10 μM): 91% | remaining binding at 5 µM (BMPR2; 5 μM): 85% | remaining binding at 10 µM (BMPR2; 10 μM): 100% | remaining binding at 5 µM (BMX; 5 μM): 92% | remaining binding at 10 µM (BMX; 10 μM): 93% | remaining binding at 5 µM (JNK3; 5 μM): 84% | remaining binding at 10 µM (JNK3; 10 μM): 95% | remaining binding at 5 µM (CSNK2A1; 5 μM): 100% | remaining binding at 10 µM (CSNK2A1; 10 μM): 84% | remaining binding at 5 µM (AXL; 5 μM): 98% | remaining binding at 10 µM (AXL; 10 μM): 100% | remaining binding at 5 µM (MLK2; 5 μM): 70% | remaining binding at 10 µM (MLK2; 10 μM): 100% | remaining binding at 5 µM (CHEK1; 5 μM): 100% | remaining binding at 10 µM (CHEK1; 10 μM): 100% | remaining binding at 5 µM (HIPK4; 5 μM): 91% | remaining binding at 10 µM (HIPK4; 10 μM): 100% | remaining binding at 5 µM ([2]; 5 μM): 100% | remaining binding at 10 µM ([2]; 10 μM): 100% | remaining binding at 5 µM (NEK4; 5 μM): 65% | remaining binding at 10 µM (NEK4; 10 μM): 99% | remaining binding at 5 µM (FGFR4; 5 μM): 96% | remaining binding at 10 µM (FGFR4; 10 μM): 97% | remaining binding at 5 µM (PIK3C2G; 5 μM): 100% | remaining binding at 10 µM (PIK3C2G; 10 μM): 100% | remaining binding at 5 µM (CDK5; 5 μM): 85% | remaining binding at 10 µM (CDK5; 10 μM): 98% | remaining binding at 5 µM (BRAF; 5 μM): 100% | remaining binding at 10 µM (BRAF; 10 μM): 100% | remaining binding at 5 µM (PIK3CG; 5 μM): 89% | remaining binding at 10 µM (PIK3CG; 10 μM): 80% | remaining binding at 5 µM (LKB1; 5 μM): 100% | remaining binding at 10 µM (LKB1; 10 μM): 89% | remaining binding at 5 µM (EPHB1; 5 μM): 100% | remaining binding at 10 µM (EPHB1; 10 μM): 100% | remaining binding at 5 µM (CDKL3; 5 μM): 77% | remaining binding at 10 µM (CDKL3; 10 μM): 74% | remaining binding at 5 µM ([3]; 5 μM): 76% | remaining binding at 10 µM ([3]; 10 μM): 91%
